This is an account of results in patent publication US20200131558A1, “PAPER-BASED ASSAY FOR ANTIMICROBIAL RESISTANCE” (Colorado State University Research Foundation, priority 2017, published 2020).

For series [1], the system named is Chromobacterium violaceum. In words: Antibiotic susceptibility testing (MIC, VITEK 2 microdilution). The series is classed as cell-based. The following applies: C. violaceum isolate from influent of urban sewage water. How it is done: To determine antibiotic susceptibility of Chromobacterium violaceum and the 32 E. coli isolates, each isolate was subjected to antibiotic susceptibility testing [VITEK 2™ Biomerieux, USA] using microdilution and photometric determination of growth at the Colorado State University Veterinary Diagnostic Laboratory located in Fort Collins, Colo., US. […] The antibiotics that were tested against C. violaceum included amikacin, amoxicillin-clavulanate, ampicillin, cefazolin, cefpodoxime, ceftazidime, cephalothin, imipenem, ticarcillin, and ticarcillin-clavulanate. Antibiotics tested against each E. coli isolate included amoxicillin, ampicillin, cefalexin, cefovecin, cefpodoxime, ceftiofur, piperacillin, ceftazidime, cefotaxime, and imipenem.
(In broth dilution the organism is exposed to a series of concentrations in liquid medium.)

Series [2] relates to Chromobacterium violaceum. Put plainly: Growth on ampicillin-containing agar plate. As to conditions: C. violaceum isolate. The format is cell-based.
The subject of series [3] is C. violaceum's β-lactamase. Put plainly: Paper-based test on intact bacterial isolates. The series is classed as cell-based, Chromobacterium violaceum. The following applies: intact bacteria, 0.5 mM nitrocefin, 2 hr. Here is the method:
Bacterial isolates were obtained from grab samples in the field, except for influent. Field samples include influent, effluent, surface water from a river and sewage samples from city sewers. All samples were plated by pipetting 50-100 μL on various clinical agars [CHROMagar™ Orientation, CHROMagar™ ESBL, and CHROMagar™ KPC]. Bacterial isolates were purified by selecting a single colony with an inoculating loop and spreading the colony on the same kind of agar the colony was selected from, or was spread onto a MacConkey agar plate [Difco]. To remove potential inhibitors before any testing, they were further subcultured onto non selective agar [Tryptic Soy Agar, Thermo Scientific™ Remel™] and then grown in a nutrient broth [Tryptic Soy Broth, Thermo Scientific™ Remel™, Soybean Casein Digest] at 37° C. and 2% CO2. After replenishing the nutrient broth, all bacteria isolates were grown using a shaker for 12-18 hr depending on bacteria growth rate. They were also re-plated on ESBL plates to confirm resistance mechanisms. The isolates were given to the tester blind for accurate, unbiased results. Bacteria were not lysed before reacting 20 μL of bacteria solution with 20 μL of 0.5 mM nitrocefin. Images were obtained after 2 hr of reaction.

Series [4] deals with β-lactamase. The following applies: on paper, ~22° C., 1 U/mL β-lactamase, Lineweaver-Burk plot.
Method: Nitrocefin [VWR International], a chromogenic cephalosporin, was used for detection of β-lactamase because of the distinct color change from yellow to red in the presence of the enzyme, making it a user-friendly platform. […] Aliquots of 9.68 mM nitrocefin was frozen at −20° C. in amber microcentrifuge tubes [VWR International]. These tubes were used to minimize degradation from UV exposure. Aliquots were taken out and allowed to thaw and warm to room temperature. Nitrocefin was further diluted with pH 7.4 phosphate buffered saline (PBS) [1.37 M NaCl, 0.027 M of KCl, 0.1 M Na2HPO4, and 0.018 M KH2PO4] to a concentration of 0.5 mM for each experiment (except for nitrocefin concentration optimization where 0.5 mM was selected). During pH optimization experiments, nitrocefin was diluted in pH buffers ranging from pH 6 to pH 9. Recombinant β-lactamase was purchased at a concentration of 1,500 U/mg [Abcam] and was initially dissolved in dH2O and aliquoted and frozen. […]
In order to quantify the concentration of nitrocefin that was hydrolyzed every minute, a calibration curve was generated by quantifying the red product after the reaction had completed, and plotting green light intensity vs. product concentration. […] The calculated Vmax and Km values were carried out in the Michaelis-Menten equation to obtain a theoretical kinetic curve to compare to data points.
Series [5] is classed as physicochemical.

For `CC1(C)S[C@@H]2[C@H](NC(=O)[C@H](N)c3ccc(O)cc3)C(=O)N2[C@H]1C(=O)O` [amoxicillin], the “resistance/susceptibility of isolate (MIC interpreted per CLSI)” value in series [1] is “susceptible”.
As to `CC1(C)S[C@@H]2[C@H](NC(=O)[C@H](N)c3ccccc3)C(=O)N2[C@H]1C(=O)O` [ampicillin], the “growth on ampicillin-containing agar plate” value in series [2] is on record as “did not grow”.
As for `Cc1nnc(SCC2=C(C(=O)O)N3C(=O)[C@@H](NC(=O)Cn4cnnn4)[C@H]3SC2)s1` [cefazolin], the “resistance/susceptibility of isolate (MIC interpreted per CLSI)” value in series [1] was “resistant”.
As to `CC(=O)OCC1=C(C(=O)O)N2C(=O)[C@@H](NC(=O)Cc3cccs3)[C@H]2SC1` [cephalothin], the “resistance/susceptibility of isolate (MIC interpreted per CLSI)” value in series [1] is given as “resistant”.
As usually defined, the Km is the concentration of substrate that gives half-maximal velocity. Broadly, the Vmax is the rate approached at saturating substrate. Take `O=C(Cc1cccs1)N[C@@H]1C(=O)N2C(C(=O)O)=C(/C=C/c3ccc([N+](=O)[O-])cc3[N+](=O)[O-])CS[C@H]12` [nitrocefin]: in series [3], the “reaction with the isolate's β-lactamase (color change)” value is “did not react”. Also, in series [4], the Km came to 293 ± 13 µM and the Vmax amounted to 0.0285 ± 0.0012 mM/min. Further, the solubility in water entry in series [5] was “insoluble in water”.
Consider `CC1(C)S[C@@H]2[C@H](NC(=O)[C@H](C(=O)O)c3ccsc3)C(=O)N2[C@H]1C(=O)O` [ticarcillin], for which the “resistance/susceptibility of isolate (MIC interpreted per CLSI)” value in series [1] was “susceptible”.
